Reference: publication PMC6449406, “Classification of the human phox homology (PX) domains based on their phosphoinositide binding specificities” (Nature Communications, 2019)

How the values were obtained:
[1] = target: T1, SNX27 (Homo sapiens, UniProt Q96L92); experiment: liposome pelleting; format: binding; details: 10 mol% lipid in POPC/POPE liposomes, 20 µM protein, pH 7.2, 125 mM NaCl
T1 construct: PX domain only, N-terminal GST removed by thrombin, E. coli

[2] = target: T2, SNX7 (Homo sapiens, UniProt Q9UNH6); experiment: liposome pelleting; format: binding; details: 10 mol% lipid in POPC/POPE liposomes, 20 µM protein, pH 7.2, 125 mM NaCl
T2 construct: PX domain only, N-terminal GST removed by thrombin, E. coli
T2 sequence (Q9UNH6 30-151 limits assumed): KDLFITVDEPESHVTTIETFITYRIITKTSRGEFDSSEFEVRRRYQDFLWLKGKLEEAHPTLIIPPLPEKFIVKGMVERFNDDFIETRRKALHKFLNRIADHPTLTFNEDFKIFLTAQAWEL

[3] = target: T3, SNX17 (Homo sapiens, UniProt Q15036); experiment: liposome pelleting; format: binding; details: 10 mol% lipid in POPC/POPE liposomes, 20 µM protein, pH 7.2, 125 mM NaCl
T3 construct: PX domain only, N-terminal GST removed by thrombin, E. coli
T3 sequence (Q15036 1-109 limits assumed): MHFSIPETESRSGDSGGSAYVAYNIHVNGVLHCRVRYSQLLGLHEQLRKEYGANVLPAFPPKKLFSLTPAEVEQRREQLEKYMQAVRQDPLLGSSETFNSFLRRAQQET

[4] = target: T4, SNX16 (Homo sapiens, UniProt P57768); experiment: liposome pelleting; format: binding; details: 10 mol% lipid in POPC/POPE liposomes, 20 µM protein, pH 7.2, 125 mM NaCl
T4 construct: PX domain only, N-terminal GST removed by thrombin, E. coli
T4 sequence (P57768 105-218 limits assumed): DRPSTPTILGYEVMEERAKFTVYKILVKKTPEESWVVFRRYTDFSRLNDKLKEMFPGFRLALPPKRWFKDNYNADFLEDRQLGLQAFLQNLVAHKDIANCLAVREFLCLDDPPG

[5] = target: T5, SNX3 (Homo sapiens, UniProt O60493); experiment: liposome pelleting; format: binding; details: 10 mol% lipid in POPC/POPE liposomes, 20 µM protein, pH 7.2, 125 mM NaCl
T5 construct: PX domain only, N-terminal GST removed by thrombin, E. coli

[6] = target: T6, PXK (Homo sapiens, UniProt Q7Z7A4); experiment: liposome pelleting; format: binding; details: 10 mol% lipid in POPC/POPE liposomes, 20 µM protein, pH 7.2, 125 mM NaCl
T6 construct: PX domain only, N-terminal GST removed by thrombin, E. coli
T6 sequence (Q7Z7A4 14-126 limits assumed): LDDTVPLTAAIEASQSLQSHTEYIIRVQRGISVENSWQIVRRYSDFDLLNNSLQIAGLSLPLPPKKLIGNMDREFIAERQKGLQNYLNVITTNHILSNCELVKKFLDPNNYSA

[7] = target: T7, SNX19 (Homo sapiens, UniProt Q92543); experiment: liposome pelleting; format: binding; details: 10 mol% lipid in POPC/POPE liposomes, 20 µM protein, pH 7.2, 125 mM NaCl
T7 construct: a GST-tagged form was also made), E. coli
T7 sequence (Q92543 533-663 limits assumed): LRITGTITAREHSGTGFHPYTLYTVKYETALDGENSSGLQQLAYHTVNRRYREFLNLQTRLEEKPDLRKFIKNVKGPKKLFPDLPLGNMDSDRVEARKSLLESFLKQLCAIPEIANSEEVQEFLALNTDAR

[8] = target: T8, p40phox (Homo sapiens, UniProt Q15080); experiment: liposome pelleting; format: binding; details: 10 mol% lipid in POPC/POPE liposomes, 20 µM protein, pH 7.2, 125 mM NaCl
T8 construct: gene NCF4; PX domain only, N-terminal GST removed by thrombin, E. coli
T8 sequence (Q15080 19-140 limits assumed): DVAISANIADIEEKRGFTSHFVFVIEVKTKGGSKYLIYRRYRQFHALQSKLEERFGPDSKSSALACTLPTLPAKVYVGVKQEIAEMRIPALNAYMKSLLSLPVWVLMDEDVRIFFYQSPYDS

[9] = target: T9, SNX25 PX domain (Homo sapiens, UniProt Q9H3E2); experiment: 1H-15N HSQC NMR titration; format: binding; details: pH 7.0, 100 mM NaCl, 298 K; secondary site (Lys734)
T9 construct: PX domain only, 15N-labelled, from GST fusion in E. coli
T9 sequence (Q9H3E2 506-628): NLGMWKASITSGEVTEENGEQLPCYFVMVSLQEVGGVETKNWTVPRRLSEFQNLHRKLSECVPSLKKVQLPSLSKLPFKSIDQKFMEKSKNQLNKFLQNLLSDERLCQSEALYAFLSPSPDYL

[10] = target: T10, SNX1 (Homo sapiens, UniProt Q13596); experiment: biochemical; set-up: ITC, soluble phosphoinositide headgroup analogue titrated into purified PX domain, 1:1 fit; details: ITC, 20 uM PX domain in cell
T10 construct: PX domain only, N-terminal GST removed by thrombin, E. coli
From the text: (§1) We next used isothermal titration calorimetry (ITC) to measure the binding of selected PX domains to soluble phosphoinositide headgroup analogues (Supplementary Figures 2, 3; Supplementary Table 4). These experiments quantitatively supported the results of the liposome pelleting assays for all of the PX domains tested. As an orthogonal method of quantitation, we used biolayer interferometry (BLItz) to measure the interactions of PX proteins with different phosphoinositide-containing membranes (Supplementary Figures 4, 5; Supplementary Table 5). In these experiments, liposomes containing a small amount of biotinylated lipids were coupled to streptavidin sensors, and dipped into solutions containing the PX domains at a single concentration of 20 μM. Again, the results of these liposome-binding experiments using BLItz correlated well with both ITC and liposome pelleting assays. The dissociation constants derived from BLItz analyses were generally in agreement with those from ITC and correlated well with the qualitative interactions observed in pelleting assays. As summarized in Supplementary Table 1, many previous reports have described interactions of human PX domain proteins with a variety of different phosphoinositide lipids, as well as other lipids such as phosphatidylserine (PS) and phosphatidic acid (PA) that may promote recruitment to various cellular organelles and membrane domains. Our aim was to perform parallel comparisons of as many human PX domains as possible, using qualitative and quantitative approaches to measure binding to both membrane mimetics and soluble phosphoinositide headgroups. […] Samples were subjected to ultracentrifugation followed by SDS-PAGE and Coomassie staining of the unbound supernatant (S) and bound pellet (P) fractions. b Water-soluble PtdIns3P and PtdIns(3,4)P2 headgroup analogues (500 μM) were titrated into the SGK3 PX domain (20 μM) and measured by ITC. […]

[11] = target: T11, SNX2 (Homo sapiens, UniProt O60749); experiment: biochemical; set-up: ITC, soluble phosphoinositide headgroup analogue titrated into purified PX domain, 1:1 fit; details: ITC, 20 uM PX domain in cell
T11 construct: PX domain only, N-terminal GST removed by thrombin, E. coli
T11 sequence (O60749 140-269 limits assumed): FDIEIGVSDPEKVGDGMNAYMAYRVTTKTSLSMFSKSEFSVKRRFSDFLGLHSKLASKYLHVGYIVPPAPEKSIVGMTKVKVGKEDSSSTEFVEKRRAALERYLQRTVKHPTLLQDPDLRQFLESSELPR
From the text: as §1

[12] = target: T9, SNX25 PX domain; experiment: biochemical; set-up: ITC, soluble phosphoinositide headgroup analogue titrated into purified PX domain, 1:1 fit; details: ITC, 20 uM PX domain in cell
From the text: as §1

[13] = target: T12, SNX23 (Homo sapiens, UniProt Q96L93); experiment: biochemical; set-up: ITC titration of soluble phosphoinositide headgroup analogue into PX domain, Kd
T12 construct: gene KIF16B; PX domain, GST removed
T12 sequence (Q96L93 1-1317): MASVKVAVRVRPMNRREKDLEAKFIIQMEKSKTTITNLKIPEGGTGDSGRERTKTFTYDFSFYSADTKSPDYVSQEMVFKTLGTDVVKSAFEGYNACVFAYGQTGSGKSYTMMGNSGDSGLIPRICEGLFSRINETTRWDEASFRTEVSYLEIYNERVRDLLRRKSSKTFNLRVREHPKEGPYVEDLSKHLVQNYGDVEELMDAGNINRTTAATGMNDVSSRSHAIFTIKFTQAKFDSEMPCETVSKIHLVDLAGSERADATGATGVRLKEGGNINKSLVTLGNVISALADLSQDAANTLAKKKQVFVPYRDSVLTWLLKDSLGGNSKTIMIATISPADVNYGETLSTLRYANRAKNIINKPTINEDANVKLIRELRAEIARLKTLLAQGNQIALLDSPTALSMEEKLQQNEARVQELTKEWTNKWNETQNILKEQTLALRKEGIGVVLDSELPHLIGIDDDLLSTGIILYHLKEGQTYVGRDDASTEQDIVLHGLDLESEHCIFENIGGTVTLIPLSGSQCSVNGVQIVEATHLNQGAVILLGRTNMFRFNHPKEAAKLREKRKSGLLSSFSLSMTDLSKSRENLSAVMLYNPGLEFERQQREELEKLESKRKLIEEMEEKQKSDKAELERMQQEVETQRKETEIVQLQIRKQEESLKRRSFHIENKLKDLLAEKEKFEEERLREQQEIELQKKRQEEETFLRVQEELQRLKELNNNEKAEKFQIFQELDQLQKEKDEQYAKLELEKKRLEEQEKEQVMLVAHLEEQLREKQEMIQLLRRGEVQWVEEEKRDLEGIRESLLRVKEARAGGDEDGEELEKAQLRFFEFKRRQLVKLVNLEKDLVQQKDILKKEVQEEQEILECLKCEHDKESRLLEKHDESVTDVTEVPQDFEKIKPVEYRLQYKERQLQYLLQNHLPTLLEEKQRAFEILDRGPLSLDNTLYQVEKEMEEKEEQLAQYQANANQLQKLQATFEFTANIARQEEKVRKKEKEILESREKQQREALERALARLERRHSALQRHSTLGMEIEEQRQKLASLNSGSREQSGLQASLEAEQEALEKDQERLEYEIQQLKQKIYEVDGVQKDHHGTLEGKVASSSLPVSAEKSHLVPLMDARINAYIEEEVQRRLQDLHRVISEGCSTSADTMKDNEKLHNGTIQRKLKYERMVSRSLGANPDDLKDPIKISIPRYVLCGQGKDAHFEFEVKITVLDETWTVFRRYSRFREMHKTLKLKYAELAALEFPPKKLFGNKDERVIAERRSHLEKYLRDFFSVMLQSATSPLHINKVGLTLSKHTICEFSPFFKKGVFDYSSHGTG
From the text: We next used isothermal titration calorimetry (ITC) to measure the binding of selected PX domains to soluble phosphoinositide headgroup analogues (Supplementary Figures 2, 3; Supplementary Table 4). These experiments quantitatively supported the results of the liposome pelleting assays for all of the PX domains tested. As an orthogonal method of quantitation, we used biolayer interferometry (BLItz) to measure the interactions of PX proteins with different phosphoinositide-containing membranes (Supplementary Figures 4, 5; Supplementary Table 5). In these experiments, liposomes containing a small amount of biotinylated lipids were coupled to streptavidin sensors, and dipped into solutions containing the PX domains at a single concentration of 20 μM. Again, the results of these liposome-binding experiments using BLItz correlated well with both ITC and liposome pelleting assays. The dissociation constants derived from BLItz analyses were generally in agreement with those from ITC and correlated well with the qualitative interactions observed in pelleting assays. Supplementary Information Supplementary Table 1. Previously reported structures and PtdInsP-binding specificities of mammalian PX proteins. Supplementary Table 2. PX domain constructs used in this study. Supplementary Table 3. […] PX domain binding to phosphoinositides measured by ITC.

| Kd [10] [µM] | Kd [11] [µM] | Kd [12] [µM] | Kd [13] [µM] | SMILES | liposome pelleting [1] | liposome pelleting [2] | liposome pelleting [3] | liposome pelleting [4] | liposome pelleting [5] | liposome pelleting [6] | liposome pelleting [7] | liposome pelleting [8] | 1H-15N HSQC NMR titration [9] |
| --- | --- | --- | --- | --- | --- | --- | --- | --- | --- | --- | --- | --- | --- |
| – | – | – | – | CCCCCCCC(=O)OC[C@H](COP(=O)(O)O[C@@H]1[C@H](O)[C@H](OP(=O)(O)O)[C@@H](O)[C@H](O)[C@H]1O)OC(=O)CCCCCCC [PtdIns3P, 1,2-dioctanoyl-sn-glycero-3-(phosphoinositol-3-phosphate)] | exclusive interaction with liposomes containing PtdIns3P (SNX3, SNX7, SNX19, SNX17, SNX27 | exclusive interaction with liposomes containing PtdIns3P (SNX3, SNX7 | exclusive interaction with liposomes containing PtdIns3P (SNX3, SNX7, SNX19, SNX17 | (SNX3, SNX7, SNX19, SNX17, SNX27, p40phox, PXK, and SNX16) | exclusive interaction with liposomes containing PtdIns3P (SNX3 | (SNX3, SNX7, SNX19, SNX17, SNX27, p40phox, PXK, and SNX16) | exclusive interaction with liposomes containing PtdIns3P (SNX3, SNX7, SNX19 | (SNX3, SNX7, SNX19, SNX17, SNX27, p40phox, PXK, and SNX16) | – |
| 42 | 35.8 | 12.1 | 11.5 | CCCCCCCC(=O)OC[C@H](COP(=O)(O)O[C@@H]1[C@H](O)[C@H](OP(=O)(O)O)[C@@H](O)[C@H](OP(=O)(O)O)[C@H]1O)OC(=O)CCCCCCC [PtdIns(3,5)P2 headgroup analogue] | – | – | – | – | – | – | – | – | significant chemical shift perturbations were observed with di- and tri-phosphorylated phosphoinositides (PIP2 and PIP3) |
